Earlier results on 1 compound are cited in patent publication US11071776B2, “Nanoparticles for treatment of allergy” (priority 2012, dated 2021).

For `CCCCCCCCCCCCCCCCCCCCCCCCCC(=O)N[C@@H](CO[C@H]1O[C@H](CO)[C@H](O)[C@H](O)[C@H]1O)[C@H](O)[C@H](O)CCCCCCCCCCCCCC` [αGalCer, alpha-galactosylceramide], the toxicity to humans result is on record as “not toxic to humans”.
